In patent US20250388593A1 (MITSUBISHI TANABE PHARMA CORPORATION, priority 2023, published 2025):

Target: CRBN truncate (318-426) (Homo sapiens (Human), UniProt Q96SW2)
Test: Measurement of molecular interactions using surface plasmon resonance (SPR), Biacore T200
Format: binding
Conditions: 25° C., immobilized CRBN truncate, upper limit of measurement 200 μM
Protocol: The instrument used was the Biacore T200 (manufactured by Cytiva). The CRBN truncate (318-426) was obtained by expressing a construct with an Avi-tag added at the C-terminus. The sensor chip used was Sensor Chip SA (manufactured by Cytiva). The CRBN truncate was immobilized using the affinity between SA (streptavidin) on the sensor chip and the Avi-tag. The running buffer was a mixture of 10 mM HEPES pH 7.5, 150 mM NaCl, 1 mM TCEP, 0.005% Tween 20, and 2% DMSO. […] Contact time and dissociation time were set at 60 seconds and 120 seconds, respectively.

CRBN truncate (318-426), sequence (Q96SW2 318-426): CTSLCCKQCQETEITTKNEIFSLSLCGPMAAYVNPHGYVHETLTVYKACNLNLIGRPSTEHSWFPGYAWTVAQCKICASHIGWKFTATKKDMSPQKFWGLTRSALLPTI

SMILES	Kd [µM]
Cn1ncc2c(N3CCC4(CCCC(=O)NC4=O)C3)ncnc21 (stereo not shown) [Example 39, 2-(1-methylpyrazolo[3,4-d]pyrimidin-4-yl)-2,7-diazaspiro[4.6]undecane-6,8-dione]	≥ 100
CCOC(=O)c1cc(N2CCC3(CCCC(=O)NC3=O)C2)ncc1C(F)(F)F (stereo not shown) [Example 40, Ethyl 2-(6,8-dioxo-2,7-diazaspiro[4.6]undecan-2-yl)-5-(trifluoromethyl)pyridine-4-carboxylate]	≥ 100
COc1cc(N2CCC3(CCCC(=O)NC3=O)C2)ccc1[N+](=O)[O-] (stereo not shown) [Example 41, 2-(3-Methoxy-4-nitrophenyl)-2,7-diazaspiro[4.6]undecane-6,8-dione]	≥ 100
COc1cc([N+](=O)[O-])ccc1N1CCC2(CCCC(=O)NC2=O)C1 (stereo not shown) [Example 42, 2-(2-Methoxy-4-nitrophenyl)-2,7-diazaspiro[4.6]undecane-6,8-dione]	50 to 100
COC(=O)c1cc2ncnc(N3CCC4(CCCC(=O)NC4=O)C3)c2s1 (stereo not shown) [Example 43, Methyl 4-(6,8-dioxo-2,7-diazaspiro[4.6]undecan-2-yl)thieno[3,2-d]pyrimidine-6-carboxylate]	50 to 100
O=C1CCC(N2C(=O)CC3(CN(C(=O)c4ccccc4)C3)C2=O)C(=O)N1 (stereo not shown) [Example 44-2, 2-Benzoyl-6-(2,6-dioxopiperidin-3-yl)-2,6-diazaspiro [3.4]octane-5,7-dione]	≥ 100
CC(C)(C)OC(=O)c1ccc(N2CC3(CC(=O)N(C4CCC(=O)NC4=O)C3=O)C2)nc1 (stereo not shown) [Example 45, tert-Butyl 6-[6-(2,6-dioxopiperidin-3-yl)-5,7-dioxo-2,6-diazaspiro [3.4]octan-2-yl]pyridine-3-carboxylate]	50 to 100
CC(C)(C)OC(=O)c1ccnc(N2CC3(CC(=O)N(C4CCC(=O)NC4=O)C3=O)C2)c1 (stereo not shown) [Example 46, tert-Butyl 2-[6-(2,6-dioxopiperidin-3-yl)-5,7-dioxo-2,6-diazaspiro[3.4]octan-2-yl]pyridine-4-carboxylate]	50 to 100
CC(C)(C)OC(=O)c1cccc(N2CC3(CC(=O)N(C4CCC(=O)NC4=O)C3=O)C2)n1 (stereo not shown) [Example 47, tert-Butyl 6-[6-(2,6-dioxopiperidin-3-yl)-5,7-dioxo-2,6-diazaspiro[3.4]octan-2-yl]pyridine-2-carboxylate]	50 to 100
CC(C)(C)OC(=O)CN1CC2(CC(=O)N(C3CCC(=O)NC3=O)C2=O)C1 (stereo not shown) [Example 48, tert-Butyl 2-[6-(2,6-dioxopiperidin-3-yl)-5,7-dioxo-2,6-diazaspiro[3.4]octan-2-yl]acetate]	≥ 100
CC(C)(C)OC(=O)C(C)(C)N1CC2(CC(=O)N(C3CCC(=O)NC3=O)C2=O)C1 (stereo not shown) [Example 49, tert-Butyl 2-[6-(2,6-dioxopiperidin-3-yl)-5,7-dioxo-2,6-diazaspiro[3.4]octan-2-yl]-2-methylpropanoate]	≥ 100
CC(C)(C)OC(=O)NCCCCCN1CC2(CC(=O)N(C3CCC(=O)NC3=O)C2=O)C1 (stereo not shown) [Example 50, tert-Butyl N-[5-[6-(2,6-dioxopiperidin-3-yl)-5,7-dioxo-2,6-diazaspiro[3.4]octan-2-yl]pentyl]carbamate]	≥ 100
CC(C)(C)OC(=O)NCCCCCCCCN1CC2(CC(=O)N(C3CCC(=O)NC3=O)C2=O)C1 (stereo not shown) [Example 51, tert-Butyl N-[8-[6-(2,6-dioxopiperidin-3-yl)-5,7-dioxo-2,6-diazaspiro[3.4]octan-2-yl]octyl]carbamate]	≥ 100
CCOC(=O)c1ccc2nc(N3CC4(CC(=O)N(C5CCC(=O)NC5=O)C4=O)C3)sc2c1 (stereo not shown) [Example 52, Ethyl 2-[6-(2,6-dioxopiperidin-3-yl)-5,7-dioxo-2,6-diazaspiro[3.4]octan-2-yl]-1,3-benzothiazole-6-carboxylate]	< 50
COC(=O)c1cccc(CN2CC3(CC(=O)N(C4CCC(=O)NC4=O)C3=O)C2)c1 (stereo not shown) [Example 53, Methyl 3-[[6-(2,6-dioxopiperidin-3-yl)-5,7-dioxo-2,6-diazaspiro[3.4]octan-2-yl]methyl]benzoate]	50 to 100
COC(=O)c1ccc(CN2CC3(CC(=O)N(C4CCC(=O)NC4=O)C3=O)C2)cc1 (stereo not shown) [Example 54, Methyl 4-[[6-(2,6-dioxopiperidin-3-yl)-5,7-dioxo-2,6-diazaspiro[3.4]octan-2-yl]methyl]benzoate]	50 to 100
O=C1CCC(N2C(=O)CC3(CN(C(=O)CNC(=O)c4ccccc4)C3)C2=O)C(=O)N1 (stereo not shown) [Example 55, N-[2-[6-(2,6-Dioxopiperidin-3-yl)-5,7-dioxo-2,6-diazaspiro[3.4]octan-2-yl]-2-oxoethyl]benzamide]	≥ 100
CC(C)(C)OC(=O)c1ccc(N2CCCC3(CCCC(=O)NC3=O)CCC2)nc1 [Example 56, tert-Butyl 6-(1,3-dioxo-2,11-diazaspiro [6.7]tetradecan-11-yl) pyridine-3-carboxylate]	50 to 100
O=C1CCCC(CNC(=O)c2ccccc2)C(=O)N1 (stereo not shown) [Example 57, N-[(2,7-Dioxoazepan-3-yl)methyl]benzamide]	≥ 100
CCOC(=O)c1ccc2nc(N3CC4(CC(=O)N(C5CCC(=O)NC5=O)C4)C3)sc2c1 (stereo not shown) [Example 59, Ethyl 2-[6-(2,6-dioxo-3-piperidyl)-7-oxo-2,6-diazaspiro [3.4]octan-2-yl]-1,3-benzothiazole-6-carboxylate]	< 50
CC(C)(C)OC(=O)c1cccc(C2CCCC(=O)NC2=O)c1 (stereo not shown) [Example 60, tert-Butyl 3-(2,7-dioxoazepan-3-yl) benzoate]	50 to 100
O=C1CCCC(c2ccc([N+](=O)[O-])cc2)C(=O)N1 (stereo not shown) [Example 61, 3-(4-Nitrophenyl) azepane-2,7-dione]	≥ 100

SMILES	Kd [µM]
O=C1CCCC(c2cccc([N+](=O)[O-])c2)C(=O)N1 (stereo not shown) [Example 62, 3-(3-Nitrophenyl) azepane-2,7-dione]	≥ 100
CC(=O)Nc1ccc(Cl)c(C2CCCC(=O)NC2=O)c1 (stereo not shown) [Example 65, N-[4-Chloro-3-(2,7-dioxoazepan-3-yl)phenyl]acetamide]	≥ 100
O=C1CCCC(Oc2ccccc2[N+](=O)[O-])C(=O)N1 (stereo not shown) [Example 66-1, 3-(2-Nitrophenoxy) azepane-2,7-dione]	≥ 100
Nc1ccccc1OC1CCCC(=O)NC1=O (stereo not shown) [Example 66-2, 3-(2-Aminophenoxy) azepane-2,7-dione]	≥ 100
CC(C)(C)OC(=O)COc1cccc(C(=O)NC2CCCC(=O)NC2=O)c1F (stereo not shown) [Example 67, tert-Butyl 2-[3-[(2,7-dioxoazepan-3-yl)carbamoyl]-2-fluorophenoxy]acetate]	≥ 100
COc1c(OCC(=O)OC(C)(C)C)cccc1C(=O)NC1CCCC(=O)NC1=O (stereo not shown) [Example 68, tert-Butyl 2-[3-[(2,7-dioxoazepan-3-yl)carbamoyl]-2-methoxyphenoxy]acetate]	≥ 100
CC(C)(C)OC(=O)COc1cccc(C(=O)NC2CCCC(=O)NC2=O)n1 (stereo not shown) [Example 69, tert-Butyl 2-(6-((2,7-dioxoazepan-3-yl)carbamoyl)pyridin-2-yl) oxyacetate]	50 to 100
Nc1cccc(C2CCCC(=O)NC2=O)c1 (stereo not shown) [Example 70, 3-(3-Aminophenyl) azepane-2,7-dione]	≥ 100
CC(=O)Nc1cccc(C2CCCC(=O)NC2=O)c1 (stereo not shown) [Example 71, N-[3-(2,7-Dioxoazepan-3-yl)phenyl]acetamide]	≥ 100
O=C1CCCC2(CCN(c3nc4ccc([N+](=O)[O-])cc4s3)C2)C(=O)N1 (stereo not shown) [Example 72, 2-(6-Nitro-1,3-benzothiazol-2-yl)-2,7-diazaspiro [4.6]undecane-6,8-dione]	< 50
CCOC(=O)c1ccc2nc(N3CCC4(CCCC(=O)NC4=O)C3)sc2c1 (stereo not shown) [Example 73, Ethyl 2-(6,8-dioxo-2,7-diazaspiro[4.6]undecane-2-yl)-1,3-benzothiazole-6-carboxylate]	< 50
O=C1CCCC2(CCN(c3nc4ncccc4s3)C2)C(=O)N1 (stereo not shown) [Example 74, 2-([1,3]thiazolo[4,5-b]pyridin-2-yl)-2,7-diazaspiro[4.6]undecane-6,8-dione]	≥ 100
O=C1CCCC2(CCN(c3ccc([N+](=O)[O-])cn3)C2)C(=O)N1 (stereo not shown) [Example 75, 2-(5-nitro-2-pyridyl)-2,7-diazaspiro[4.6]undecane-6,8-dione]	< 50
O=Cc1ccc(N2CCC3(CCCC(=O)NC3=O)C2)nc1 (stereo not shown) [Example 76, 6-(6,8-Dioxo-2,7-diazaspiro[4.6]undecane-2-yl)pyridine-3-carbaldehyde]	≥ 100
O=C1CCCC2(CCN(c3ncc([N+](=O)[O-])cc3Cl)C2)C(=O)N1 (stereo not shown) [Example 77, 2-(3-chloro-5-nitro-2-pyridyl)-2,7-diazaspiro[4.6]undecane-6,8-dione]	< 50
O=C1CCCC2(CCN(c3ncc([N+](=O)[O-])cc3C(F)(F)F)C2)C(=O)N1 (stereo not shown) [Example 79, 2-(5-nitro-3-(trifluoromethyl)-2-pyridyl)-2,7-diazaspiro[4.6]undecane-6,8-dione]	≥ 100
O=C1CCCC2(CCN(c3ccc([N+](=O)[O-])cc3)C2)C(=O)N1 (stereo not shown) [Example 80, 2-(4-Nitrophenyl)-2,7-diazaspiro[4.6]undecane-6,8-dione]	< 50
Cc1cc(N2CCC3(CCCC(=O)NC3=O)C2)ccc1[N+](=O)[O-] (stereo not shown) [Example 81, 2-(3-Methyl-4-nitrophenyl)-2,7-diazaspiro[4.6]undecane-6,8-dione]	≥ 100
Cc1cc([N+](=O)[O-])ccc1N1CCC2(CCCC(=O)NC2=O)C1 (stereo not shown) [Example 82, 2-(2-Methyl-4-nitrophenyl)-2,7-diazaspiro[4.6]undecane-6,8-dione]	50 to 100
O=C1CCCC2(CCN(c3ccc([N+](=O)[O-])cc3F)C2)C(=O)N1 (stereo not shown) [Example 83, 2-(2-Fluoro-4-nitrophenyl)-2,7-diazaspiro[4.6]undecane-6,8-dione]	< 50
O=C1CCCC2(CCN(c3ccc([N+](=O)[O-])cc3Cl)C2)C(=O)N1 (stereo not shown) [Example 84, 2-(2-Chloro-4-nitrophenyl)-2,7-diazaspiro[4.6]undecane-6,8-dione]	< 50
